In patent US20220340951A1, “MEASURING THE ANTIMICROBIAL SUSCEPTIBILITY OF MICROBES” (priority 2019, published 2022):
≈ marks a conversion by molar mass, not a printed value. Entries after “also recorded” stand apart in the source; their conditions may differ.

What was measured:
[1] = Antibiotic screening: CV, EIS and DPV of antibiotic solutions (without gels) on gold screen printed electrode; format: physicochemical; details: antibiotic at typical working concentration, no gel; for Phase / Z at 100 kHz: EIS; for CDL / RSOLN: fitted EIS
Description: CV measurements were performed by sweeping the potential between −0.3 V to 0.5 V with reference to the Ag electrode three times. Analysis was performed using the third measurement. Electrodes were also characterised using differential pulse voltammetry (DPV) across the same potential range as CV. Peak current (Ipk) was extracted from the DPV measurement. Electrodes were also characterised using EIS. […] The Nyquist and Bode impedance plots that were generated were fitted to the Randles' equivalent circuit to extract various impedance parameters. […] A wide spectrum of antibiotics were tested including amoxicillin, oxacillin, methicillin, ampicillin, chloramphenicol, gentamicin, streptomycin and carbenicillin. […] Amoxicillin was then tested in an agarose gel with and without FF-C present (FIG. 2 (b)). […] The majority of the parameters are taken from fitted EIS data alongside Ipk from DPV measurements.

E. coli (ATCC 25922) = test: Minimum inhibitory concentration of streptomycin as used in E. coli gels; format: cell-based; details: Escherichia coli, ATCC25922
[2] = system: methicillin-resistant S. aureus (MRSA); test: Gel streak plate growth (1 wt % agarose + LB Broth + FF-C); format: cell-based, Staphylococcus aureus; details: amoxicillin 8 μg/ml
[3] = system: methicillin-resistant Staphylococcus aureus (MRSA: ATCC 43300); test: Electrochemical (EIS/DPV) bacterial growth profile on antibiotic-infused gel-modified electrode; format: cell-based
sensitive S. aureus = test: Gel streak plate growth (1 wt % agarose + LB); format: cell-based, Staphylococcus aureus; details: amoxicillin 8 μg/ml; with or without FF-C
MRSA = test: Minimum inhibitory concentration by two-fold broth microdilution; format: cell-based; details: Staphylococcus aureus; strain not stated explicitly; printed in the MRSA context
[4] = system: Staphylococcus aureus (ATCC 29213); test: Electrochemical (EIS) bacterial growth profile on antibiotic-infused gel-modified electrode; format: cell-based; details: for Z at 100 kHz growth profile compared with baseline (no bacteria): antibiotic 8 μg/ml in gel, up to 150 minutes

Molecule	DPV Ipk [1] [μA]	Phase [1] [°]	Z at 100 kHz [1] [kΩ]	CDL [1] [μF]	RSOLN [1] [kΩ]	MIC (E. coli (ATCC 25922)) [µg/mL]	growth on streak plate [2]	change in Z (baseline subtracted) ([3]; amoxicillin 8 μg/ml gel, over 30-100 minutes)	Z at 100 kHz growth profile compared with baseline (no bacteria) ([3]; amoxicillin 8 μg/ml in gel)	DPV peak current (Ipk) growth profile, baseline subtracted ([3]; amoxicillin 50 μg/ml gel)	change in Z (baseline subtracted) ([3]; amoxicillin 50 μg/ml gel, 30-100 minutes)	Z at 100 kHz growth profile compared with baseline (no bacteria) ([3]; amoxicillin 50 μg/ml in gel)	growth on streak plate (sensitive S. aureus)	MIC (MRSA) [µg/mL]	baseline-subtracted Z at 100 kHz over time ([4]; amoxicillin-laden gel 8 μg/ml, between 30 and 100 minutes)	Z at 100 kHz growth profile compared with baseline (no bacteria) [4]	Z growth curves for gels with and without oxacillin ([3]; oxacillin 8 μg/ml gel)	baseline-subtracted Z at 100 kHz over time ([4]; oxacillin gel 8 μg/ml, up to ~70 minutes)
O=C(N[C@H](CO)[C@H](O)c1ccc([N+](=O)[O-])cc1)C(Cl)Cl [chloramphenicol]	0.31	76.20	19.06	0.41	94.39													
CC1(C)S[C@@H]2[C@H](NC(=O)C(C(=O)O)c3ccccc3)C(=O)N2[C@H]1C(=O)O (stereo partly drawn) [carbenicillin]	0	46.56	7.54	0.44	11.83													
gentamicin	0.01	31.68	6.05	0.77	7.97													
[H]/N=C(/N)N[C@H]1[C@H](O)[C@@H](O)[C@H](O[C@@H]2O[C@@H](C)[C@](O)(C=O)[C@H]2O[C@@H]2O[C@@H](CO)[C@H](O)[C@@H](O)[C@@H]2NC)[C@@H](N/C(N)=N\[H])[C@@H]1O [streptomycin]	0	58.51	16.45	0.58	55.85	~4 (≈ 6.88 µM)												
COc1cccc(OC)c1C(=O)N[C@@H]1C(=O)N2[C@@H]1SC(C)(C)[C@@H]2C(=O)O [methicillin]	0.06	61.43	15.92	0.53	67.30													
CC1(C)S[C@@H]2[C@H](NC(=O)[C@H](N)c3ccccc3)C(=O)N2[C@H]1C(=O)O [ampicillin]	0	67.63	10.88	0.38	40.93													
CC1(C)S[C@@H]2[C@H](NC(=O)[C@H](N)c3ccc(O)cc3)C(=O)N2[C@H]1C(=O)O [amoxicillin]	0.02	82.74	21.34	0.53	143.30		displays growth either in the presence or absence of amoxicillin	~11 Ω	does not imitate the baseline	almost completely flat	virtually no change in Z	very similar profile to the baseline measurement	completely inhibited; also recorded: unable to grow	~8 (≈ 21.9 µM)	unchanging	almost identical response to the baseline response		
Cc1onc(-c2ccccc2)c1C(=O)N[C@@H]1C(=O)N2[C@@H]1SC(C)(C)[C@@H]2C(=O)O [oxacillin]	0	111.17	22.79	0.28	49.81											very similar Z profile to the baseline measurement	look very similar for gels with and without oxacillin	remains fairly flat
